Assay results as given in US11896733B2, “Apparatuses, methods, and compositions for the treatment and prophylaxis of chronic wounds” (KCI Licensing, Inc., priority 2010, dated 2024).

What was measured:
MMP-9 = biological target: T1, MMP-9 (Homo sapiens, UniProt P14780); assay: MMP-9 Colorimetric Drug Discovery Kit (Biomol): MMP-9 activity reduction by dressings; format: biochemical; settings: compared to control samples with no MMP-9 inhibitor activity
T1 construct: purchased Biomol
From the text: A National Diagnostics Hydrogen Peroxide Assay Kit was used to evaluate the antioxidant properties of foam pads and the formulated coated foam pads containing alpha-lipoic acid. Foam pads coated only with gelatin were used as controls. FIG. 7 is a graph showing the percentage of hydrogen peroxide reduction due to reaction with alpha-lipoic acid. An MMP-9 Colorimetric Drug Discovery Kit (Biomol) was used to evaluate the MMP inhibiting/inactivating ability of the formulated foam pads containing alpha-lipoic acid/gelatin (ALA) and gelatin alone (GF GEL). The controls were uncoated foam pads and known potent MMP inactivating drug, NNGH (C13H20N2O5S, available from Enzo® Life Sciences). […] FIG. 9 is a graph showing the release of alpha-lipoic acid from the coating on the foam pads. The coating delivers approximately 70% of the total alpha-lipoic acid within the first day, while the remaining alpha-lipoic acid is released during the next 2-3 days.
Coated polyurethane foam (GranuFoam®) scaffolds described above in Examples 1-2 were further assayed for their ability to reduce MMP activity as compared to non-coated collagen based scaffold such as the Biostep™ and Promogran™ products.

[1] = Release of alpha-lipoic acid from the coating on foam pads; format: physicochemical; settings: gelatin coating on foam pads (FIG. 9)
From the text: Polyurethane open-cell reticulated foam pads were selected as the scaffold 140 and were immersed in a solution containing 1.5 wt % of alpha-lipoic acid and 4.5 wt % 225-bloom beef gelatin (and, where applicable, 0.3% EDTA). Gelatin was used as a biocompatible binding agent with good oxygen barrier and sustained release properties for alpha-lipoic acid as well as for its ability to act as a sacrificial substrate for surrounding gelatinases. Alpha-lipoic acid was pre-dissolved in ethanol and then mixed into the final solution. The foam pads were immersed for a sufficient amount of time to coat the pathways formed within the open-cell reticulated foam as described above with respect to the scaffold 140. After immersion, the foam pads were withdrawn, compressed to remove excess solution, and dried to a constant weight. In some cases, sodium benzoate was added to the formulation as a preservative. Dried foams comprised, by weight, 2% alpha-lipoic acid, 6% gelatin and, where applicable, 0.4% EDTA.
A National Diagnostics Hydrogen Peroxide Assay Kit was used to evaluate the antioxidant properties of foam pads and the formulated coated foam pads containing alpha-lipoic acid. Foam pads coated only with gelatin were used as controls. FIG. 7 is a graph showing the percentage of hydrogen peroxide reduction due to reaction with alpha-lipoic acid. […]

T1 sequence (P14780 107-444 limits assumed): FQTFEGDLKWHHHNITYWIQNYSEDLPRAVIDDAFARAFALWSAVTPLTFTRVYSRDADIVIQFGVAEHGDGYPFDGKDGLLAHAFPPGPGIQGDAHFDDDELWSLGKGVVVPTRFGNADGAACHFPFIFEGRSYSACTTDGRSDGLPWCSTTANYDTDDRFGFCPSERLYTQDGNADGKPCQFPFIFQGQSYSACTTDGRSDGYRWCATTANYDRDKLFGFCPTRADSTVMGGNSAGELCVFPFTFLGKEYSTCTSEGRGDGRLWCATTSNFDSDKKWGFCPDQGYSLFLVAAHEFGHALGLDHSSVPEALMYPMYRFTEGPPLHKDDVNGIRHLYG

SMILES	% MMP-9 activity reduction (MMP-9; Table 1 (first of two separate experiments)) [%]	% MMP-9 activity reduction (MMP-9; Table 2 (second of two separate experiments)) [%]	time over which the remaining alpha-lipoic acid is released ([1]; after the first day) [days]	fraction of the total alpha-lipoic acid delivered by the coating ([1]; within the first day)
COc1ccc(S(=O)(=O)N(CC(=O)NO)CC(C)C)cc1 [NNGH]	90.2	103.8	–	–
O=C(O)CCCCC1CCSS1 (stereo not drawn) [alpha-lipoic acid]	–	–	2 to 3	approximately 70%
